Measured values taken from US20070048372A1, “Method for treating non-inflammatory osteoarthritic pain” (SRZ Properties, Inc., priority 2005, published 2007).
Entries after “also recorded” stand apart in the source; their conditions may differ.

Key:
[1] = system: rat formalin paw test (late phase); assay: Rat formalin paw test (late phase): number of flinches and licking time; format: in vivo, rat (Rj: Wistar (Han))
Protocol: Rats were given an intraplantar injection of 5% formalin (50 μl) into the posterior left paw. This treatment induces a recognizable flinching and licking response of the affected paw in control animals. The number of flinches was counted for 15 minutes, beginning 20 minutes after injection of formalin. The time spent licking the affected paw was also recorded.
Male Rj: Wistar (Han) rats, 10 per group, weighing 100-130 g at the beginning of the experiments were studied per group. The test was performed blind.
Lacosamide (20 mg/kg), gabapentin (50 and 100 mg/kg), combinations of lacosamide (20 mg/kg) with gabapentin (50 and 100 mg/kg), and vehicle were administered i.p. 10 minutes before injection of formalin.
Lacosamide (10 and 20 mg/kg), morphine (2 and 4 mg/kg), combinations of lacosamide (10 and 20 mg/kg) with morphine (2 and 4 mg/kg), and vehicle were administered i.p. 10 minutes before injection of formalin.
Lacosamide (10 mg/kg), duloxetine (8 mg/kg), a combination of lacosamide (10 mg/kg) with duloxetine (8 mg/kg), and vehicle were administered i.p. 10 minutes before injection of formalin.
Lacosamide (10 and 20 mg/kg), memantine (4 and 8 mg/kg), combinations of lacosamide (10 and 20 mg/kg) with memantine (4 and 8 mg/kg), and vehicle were administered i.p. 10 minutes before injection of formalin.
Lacosamide (10 and 20 mg/kg), naproxen (8 and 16 mg/kg), combinations of lacosamide (10 and 20 mg/kg) with […] (8 and 16 mg/kg), and vehicle were administered i.p. 10 minutes before injection of formalin. Morphine (8 mg/kg) was included as a comparative treatment.

[2] = system: muscle pressure hyperalgesia induced by TNF; assay: TNF-induced muscle pressure hyperalgesia (Randall-Selitto, withdrawal threshold to muscle pressure); format: in vivo, rat (Sprague Dawley); conditions: for reversal of muscular mechanical hyperalgesia (withdrawal threshold to muscle pressure): 18 h after TNF i.m., 30 to 60 minutes after drug; for full reversal of the muscle hyperalgesia: doses tested: pregabalin 30 and 100 mg/kg, gabapentin 100 mg/kg i.p.
Protocol: (§1) Adult male Sprague Dawley rats with a body weight of 250 g to 300 g were used (supplier: Charles River, Sulzfeld, Germany). Animals were group-housed (3 animals per cage) and maintained in a room with controlled temperature (21-22° C.) and a reversed light-dark cycle (12 h/12 h) with food and water available ad libitum. All experiments were approved by the Bavarian State animal experimentation committee and carried out in accordance with its regulations.
(§2) Recombinant rat tumor necrosis factor alpha (herein referred to as TNF) was obtained from R&D Systems, Minneapolis, Minn., U.S.A. TNF was diluted in 0.9% NaCl and used in a concentration of 1 μg in 50 μl. Injections were performed in short halothane narcosis with a 30 g needle bilaterally into the gastrocnemius or into the biceps brachii muscle. All rats were used to the behavioral tests before injections and baseline values were recorded over three test days.
Mechanical withdrawal thresholds to muscle pressure were measured with an analgesimeter (Ugo Basile, Comerio, Italy). The rat was allowed to crawl into a sock which helps the rat to relax. The hind limbs were positioned such that an increasing pressure could be applied onto the gastrocnemius muscle (maximum 250 g). The pressure needed to elicit withdrawal was recorded. Means of 3 trials for each hind limb were calculated (interstimulus interval of >30 sec). Only animals with a significant TNF effect were included for further analysis.
Rats were injected with TNF into the gastrocnemius muscle at 2 pm. Eighteen hours later, rats were tested for pressure hyperalgesia pre- and post-administration of the test drug. Rats were tested for pressure hyperalgesia 30 to 60 minutes after drug administration.
(§3) The rats, initially 10 per group, were treated with either 3, 10 or 30 mg/kg lacosamide, 2 mg/kg metamizol, 30 or 100 mg/kg pregabalin, 100 mg/kg gabapentin, or the NaCl vehicle, i.p. (intraperitoneally). Volume of i.p. injections was 0.5 ml. A pilot study was performed to confirm that i.m. (intramuscular) injection of 1 μg TNF into the gastrocnemius muscle was sufficient to induce pressure hyperalgesia.
(§4) Data are shown in graphs displaying means and standard errors of the means (SEM). Pre- and post-treatment data were compared using ANOVA (analysis of variance) and a Tukey post hoc test. Means of treatment groups were compared using a one-way ANOVA and Dunnett's post hoc test. Maximal possible effects (MPE) were calculated for all types of treatment.

[3] = system: biceps muscle grip strength after TNF-induced muscle pain; assay: Biceps muscle grip strength after TNF-induced muscle pain; format: in vivo, rat (Sprague Dawley); conditions: for reversal of TNF-induced reduction of grip strength: 6 h after TNF i.m., 30 to 60 minutes after drug
Protocol: as §1, §2
Grip strength of the forelimbs was tested with a digital grip force meter (DFIS series, Chatillon, Greensboro, NC, U.S.A.). The rat was positioned to grab the grid with the forelimbs and was gently pulled so that the grip strength could be recorded. Means of three trials were calculated. The effect of the TNF treatment was calculated for each animal separately and only animals with a significant TNF effect were included for further analysis.
Rats were injected with TNF into the biceps brachii muscle at 8 am. Six hours later, grip strength of the forelimbs was tested with a digital grip force meter. Test drug was administered, and grip strength was again tested after 30 to 60 minutes.
as §3, §4

[4] = system: monosodium iodoacetate-induced tactile allodynia; assay: Monosodium iodoacetate-induced tactile allodynia (von Frey filaments); format: in vivo, rat (Wistar); conditions: 30 mg/kg s.c., 60 minutes before test
[5] = system: monosodium iodoacetate-induced mechanical hyperalgesia; assay: Monosodium iodoacetate-induced mechanical hyperalgesia (Randall-Selitto paw pressure); format: in vivo, rat (Wistar); conditions: 30 mg/kg s.c.
[6] = Example 3, 100 mg/kg i.p. alone

SMILES: CNCC[C@H](Oc1cccc2ccccc12)c1cccs1 [Duloxetine]
- Licking time % change (a) compared with vehicle control ([1]; Example 5, 8 mg/kg i.p. alone): −26% (a)
- Licking time (seconds) mean ± SEM ([1]; Example 5, 8 mg/kg i.p. alone): 195.5 ± 45.0 NS (a) seconds
- No. of flinches % change (a) compared with vehicle control ([1]; Example 5, 8 mg/kg i.p. alone): −1% (a)
- No. of flinches mean ± SEM ([1]; Example 5, 8 mg/kg i.p. alone): 149.6 ± 27.3 NS (a)
- effects on the number of flinches and the time spent licking ([1]; Example 5, 8 mg/kg i.p. alone): had no clear effects

SMILES: NCC1(CC(=O)O)CCCCC1 [Gabapentin]
- MPE (maximal possible effect) on muscle pressure hyperalgesia, compared with vehicle ([2]; 100 mg/kg i.p.): significantly different from vehicle
- reversal of muscular mechanical hyperalgesia (withdrawal threshold to muscle pressure) ([2]; 100 mg/kg i.p.): significant reversal
- full reversal of the muscle hyperalgesia [2]: Neither pregabalin nor gabapentin led to a full reversal
- MPE (maximal possible effect) on biceps muscle grip strength, compared with vehicle ([3]; 100 mg/kg i.p.): significantly different from vehicle
- reversal of TNF-induced reduction of grip strength ([3]; 100 mg/kg i.p.): significant reversal; also recorded: improved grip strength
- Licking time % change (a) compared with vehicle control ([1]; Example 3, 50 mg/kg i.p. alone): −28% (a)
- Licking time (seconds) mean ± SEM ([1]; Example 3, 50 mg/kg i.p. alone): 161.0 ± 27.3 NS (a) seconds
- No. of flinches % change (a) compared with vehicle control ([1]; Example 3, 50 mg/kg i.p. alone): −24% (a)
- No. of flinches mean ± SEM ([1]; Example 3, 50 mg/kg i.p. alone): 97.4 ± 23.8 NS (a)
- decrease of the number of flinches as compared with vehicle controls ([1]; Example 3, 50 mg/kg i.p. alone): 24%
- decrease of the time spent licking as compared with vehicle controls ([1]; Example 3, 50 mg/kg i.p. alone): 28%
- Licking time % change (a) compared with vehicle control [1, 6]: −60% (a)
- Licking time (seconds) mean ± SEM [1, 6]: 90.0 ± 22.5 (a) seconds
- No. of flinches % change (a) compared with vehicle control [1, 6]: −31% (a)
- No. of flinches mean ± SEM [1, 6]: 88.1 ± 19.4 NS (a)
- decrease of the number of flinches as compared with vehicle controls [1, 6]: 31%
- decrease of the time spent licking as compared with vehicle controls [1, 6]: 60%

SMILES: CC12CC3CC(C)(C1)CC(N)(C3)C2 [Memantine]
- Licking time % change (a) compared with vehicle control ([1]; Example 6, 4 mg/kg i.p. alone): +25% (a)
- Licking time (seconds) mean ± SEM ([1]; Example 6, 4 mg/kg i.p. alone): 219.9 ± 21.8 NS (a) seconds
- No. of flinches % change (a) compared with vehicle control ([1]; Example 6, 4 mg/kg i.p. alone): −3% (a)
- No. of flinches mean ± SEM ([1]; Example 6, 4 mg/kg i.p. alone): 161.4 ± 26.3 NS (a)
- increase of the time spent licking as compared with vehicle controls ([1]; Example 6, 4 mg/kg i.p. alone): 25%
- Licking time % change (a) compared with vehicle control ([1]; Example 6, 8 mg/kg i.p. alone): +35% (a)
- Licking time (seconds) mean ± SEM ([1]; Example 6, 8 mg/kg i.p. alone): 237.3 ± 18.9 (a) seconds
- No. of flinches % change (a) compared with vehicle control ([1]; Example 6, 8 mg/kg i.p. alone): −20% (a)
- No. of flinches mean ± SEM ([1]; Example 6, 8 mg/kg i.p. alone): 132.3 ± 24.6 NS (a)
- increase of the time spent licking as compared with vehicle controls ([1]; Example 6, 8 mg/kg i.p. alone): 35%
- effect on the number of flinches as compared with vehicle controls ([1]; Example 6, 4 and 8 mg/kg i.p. alone): did not clearly affect

SMILES: COc1ccc2cc([C@H](C)C(=O)O)ccc2c1 [Naproxen]
- Licking time % change (a) compared with vehicle control ([1]; Example 7, 8 mg/kg i.p. alone): +16% (a)
- Licking time (seconds) mean ± SEM ([1]; Example 7, 8 mg/kg i.p. alone): 222.1 ± 21.1 NS (a) seconds
- No. of flinches % change (a) compared with vehicle control ([1]; Example 7, 8 mg/kg i.p. alone): +30% (a)
- No. of flinches mean ± SEM ([1]; Example 7, 8 mg/kg i.p. alone): 148.0 ± 35.5 NS (a)
- Licking time % change (a) compared with vehicle control ([1]; Example 7, 16 mg/kg i.p. alone): −1% (a)
- Licking time (seconds) mean ± SEM ([1]; Example 7, 16 mg/kg i.p. alone): 190.1 ± 25.4 NS (a) seconds
- No. of flinches % change (a) compared with vehicle control ([1]; Example 7, 16 mg/kg i.p. alone): +2% (a)
- No. of flinches mean ± SEM ([1]; Example 7, 16 mg/kg i.p. alone): 116.6 ± 20.7 NS (a)
- effect on the number of flinches or the time spent licking as compared with vehicle controls ([1]; Example 7, 8 and 16 mg/kg i.p. alone): did not clearly affect

SMILES: O=C(O)Cc1ccccc1Nc1c(Cl)cccc1Cl [diclofenac]
- tactile allodynia of iodoacetate-treated rats (von Frey) ([4]; day 3): had no effect
- tactile allodynia of iodoacetate-treated rats (von Frey) ([4]; day 7): had no effect
- tactile allodynia of iodoacetate-treated rats (von Frey) ([4]; day 14): had no effect
- paw pressure withdrawal threshold compared to iodoacetate/vehicle treated animals (mechanical hyperalgesia) ([5]; day 3): increase in paw pressure withdrawal threshold
- mechanical hyperalgesia (paw pressure withdrawal threshold) ([5]; day 7): reduced mechanical hyperalgesia

SMILES: Cc1c(N(C)CS(=O)(=O)[O-])c(=O)n(-c2ccccc2)n1C.[Na+] [metamizol]
- MPE (maximal possible effect) on muscle pressure hyperalgesia, compared with vehicle ([2]; 2 mg/kg i.p.): significantly different from vehicle
- reversal of muscular mechanical hyperalgesia (withdrawal threshold to muscle pressure) ([2]; 2 mg/kg i.p.): complete reversal
- MPE (maximal possible effect) on biceps muscle grip strength, compared with vehicle ([3]; 2 mg/kg i.p.): significantly different from vehicle
- reversal of TNF-induced reduction of grip strength ([3]; 2 mg/kg i.p.): significant reversal

SMILES: CC(C)C[C@H](CN)CC(=O)O [pregabalin]
- MPE (maximal possible effect) on muscle pressure hyperalgesia, compared with vehicle ([2]; 30 mg/kg i.p.): significantly different from vehicle
- reversal of muscular mechanical hyperalgesia (withdrawal threshold to muscle pressure) ([2]; 30 mg/kg i.p.): significant reversal
- MPE (maximal possible effect) on muscle pressure hyperalgesia, compared with vehicle ([2]; 100 mg/kg i.p.): significantly different from vehicle
- reversal of muscular mechanical hyperalgesia (withdrawal threshold to muscle pressure) ([2]; 100 mg/kg i.p.): significant reversal
- full reversal of the muscle hyperalgesia [2]: Neither pregabalin nor gabapentin led to a full reversal
- MPE (maximal possible effect) on biceps muscle grip strength, compared with vehicle ([3]; 100 mg/kg i.p.): significantly different from vehicle
- reversal of TNF-induced reduction of grip strength ([3]; 100 mg/kg i.p.): significant reversal; also recorded: improved grip strength
